The results in this text go back to article PMC10223552 (Pharmaceuticals, 2023).

Molecules are shown by their SMILES.

One data set deals with T1, gpH3R (Cavia porcellus, UniProt Q9JI35).
T1 construct: from tissue; host or cells: isolated distal ileum of male guinea pigs
As to the kind of experiment: Ex vivo assay for histamine H3R antagonists on electrically stimulated guinea pig ileum. On the procedure:
All newly synthesized compounds were evaluated as H3R antagonists/inverse agonists on the guinea pig ileum (gpH3R), stimulated electrically to induce contractions. The distinct affinity profile and species-dependent pharmacology of H3R ligands are known. […] Therefore, to compare species differences, all newly synthesized compounds were subjected to radioligand displacement assay in membrane fractions of HEK-293 cells stably expressing hH3R.
Ex vivo assay for histamine H3R and H1R antagonists were measured on the isolated guinea pig ileum stimulated to contractions by histamine. The pA2-values were calculated according to Arunlakshana and Schild. The radioligand-displacement binding assay was performed in membrane fractions of HEK-293 cells stably expressing hH3R. Cell cultivation and membrane preparation was performed according to Kottke et al.. The Ki values were calculated from the IC50 values using the Cheng–Prusoff equation [37]. The statistical calculations were performed on –log(Ki). […] The inhibitory activities of novel ADS compounds were assessed in spectrophotometric Ellman’s assay using AChE from electric eel (eeAChE) and BuChE from horse serum (eqBuChE).
3. Pharmacological assay results.
3.1. Ex vivo assay for histamine H3R receptor antagonists on guinea pig ileum.
Male guinea pigs, weighing 300-400 g were euthanized by a blow to the neck. Following this, a 20-30 cm length of the distal ileum, apart from the terminal 5 cm was rapidly removed and placed in phosphate buffer at room […]
indomethacin (Sigma-Aldrich, St. Louis, MO, USA) (1·10-6 mol/L). The intraluminal content was rinsed and the isolated intestine was cut into 1.5-2 cm segments. The preparations were mounted between two platinum electrodes […]
load of 1.0 g (Hugo Sachs Hebel-Messvorsatz (Tl-2)/HF-modem; Hugo Sachs Elektronik, Hugstetten, Germany) connected to a pen recorder (Kipp & Zonen BD41, Delft, Holland). During an equilibration period of 60 min, the Krebs buffer was changed every 10 min. The preparations were then continuously stimulated at 15-20 V at a frequency of 0.1 Hz for a duration of 0.5 ms, with rectangular-wave electrical pulses (Grass Stimulator S-88; Grass Instruments Co., Quincy, Massachusetts, USA). […] Five minutes […]
before (R)-(−)-α-methylhistamine (RAMH) (Toronto Research Chemicals Inc., North York, Canada), […]
added. The first cumulative concentration-response curve was determined to RAMH (10 nM – 10 mM) at an […]
The second to fourth curve was measured against increasing antagonist concentration (incubation time 20 min). The pA2-values were calculated according to Arunlakshana and Schild. [Br J Pharmacol Chemother. […] Statistical analysis was carried out with the Students’ t-test. In all tests, a p<0.05 was considered statistically significant. The pA2 values were compared with the affinity of thioperamide (Sigma-Aldrich, St. Louis, MO, USA).

In data set [1] the test system is BJ normal skin fibroblast. Kind of data set: MTT cytotoxicity test, BJ normal fibroblasts. Type of data set: cell-based. The conditions noted are these: Homo sapiens, 48 h treatment. As to the method: The studies were conducted on two breast cancer cell lines—MCF-7 (ER+PR+/HER2-negative) and MDA-MB-231 (ER/PR/HER2-negative) and human normal fibroblast cell line BJ. The cell lines were obtained from American Type Culture Collection (ATCC, Manassas, VA, USA) and were cultured at 37 °C in the presence of 5% CO2 in the atmosphere. The culture media (Eagle’s Minimum Essential Medium for MCF-7 and BJ, Leibovitz’s L-15 Medium for MDA-MB-231, Corning, NY, USA), was supplemented with 10% fetal bovine serum. The cell’s morphology was examined under a Nikon Eclipse Ti inverted phase contrast microscope (Nikon, Tokyo, Japan). The authenticity of tested cell lines was verified by short tandem repeat (STR) genotyping in the Department of Forensic Medicine (Medical University of Lublin, Lublin, Poland).
Cell viability based on metabolic activity was evaluated with the MTT colorimetric test based on the ability of viable cells to cause the transformation of tetrazolium salts MTT (3-[4,5-dimethylthiazol-2-yl]-2,5)diphenyltetrazolium bromide) into purple formazan, by cellular dehydrogenases. The cells were seeded into 96-well plates at a concentration of 2 × 10^5 cells/mL. Once 70–80% confluency was reached, tested compounds were added: ADS10310 and ADS1017 in concentrations ranging from 1 to 250 µM or DMSO as the vehicle in control cultures for the next 48 h (max. DMSO concentration <0.5%). Doxorubicin was used for comparison as the standard chemotherapeutic agent used in breast cancer treatment. After 48 h of incubation cell cultures were supplemented with 20 µL of 5 mg/mL MTT (Thermofisher, Waltham, MA, USA) stock in PBS (Corning, NY, USA), and the incubation was continued for 4 h at 37 °C. […] The solution absorbency was measured at 570 nm, using a PowerWave™ xs microplate spectrophotometer (BioTek Instruments, Winooski, VT, USA). […] IC50 values were determined using the AAT Bioquest IC50 calculator (AAT Bioquest, Inc. Quest Graph™ EC50 Calculator. https://www.aatbio.com/tools/ec50-calculator) (accessed on 6 September 2022).

For a further data set, the target named is T2, eeAChE (Electrophorus electricus, UniProt O42275).
T2 construct: purchased Sigma–Aldrich (Steinheim, Germany)
Kind of data set: biochemical. Set-up: species or system electric eel. The conditions noted are these: 10 µM; read-out: eeAChE % inh. (10 µM) ± SD.

Data set [2] is described as follows: In vitro metabolic stability in human liver microsomes. Type of data set: in vitro ADME. As to the method: In addition to biological activity, drug-likeness is equally important in drug discovery, and should be considered at the early stage of the drug development process. Therefore, ADS10310 was subjected to testing for several ADME-Tox parameters, including metabolic stability.
All assays and protocols used for the determination of compound ADME-Tox parameters were described previously. In brief, the metabolic stability assay was performed on HLMs, purchased from Sigma-Aldrich (St. Louis, MO, USA). ADS10310 was incubated with HLMs for 120 min in Tris buffer (pH = 7.4) at 37 °C. NADPH regeneration system Promega (Madison, WI, USA) was added to initiate whereas methanol was added to terminate the reaction. The LC/MS analyses of the centrifuged reaction mixture were obtained on Waters ACQUITY™ TQD system (Waters, Milford, CT, USA). The in silico prediction of most probable sites of ADS10310 metabolism was performed by MetaSite 6.0.1 software (Molecular Discovery Ltd., Hertfordshire, UK). To predict potential DDIs the CYP3A4 and CYP2D6 P450-Glo™ kits provided by Promega (Madison, WI, USA) were used according to provided protocols. The results were calculated from two independent experiments.
For orientation: Liver microsomes are a subcellular fraction often used to study metabolism.

T2 sequence (O42275 24-633): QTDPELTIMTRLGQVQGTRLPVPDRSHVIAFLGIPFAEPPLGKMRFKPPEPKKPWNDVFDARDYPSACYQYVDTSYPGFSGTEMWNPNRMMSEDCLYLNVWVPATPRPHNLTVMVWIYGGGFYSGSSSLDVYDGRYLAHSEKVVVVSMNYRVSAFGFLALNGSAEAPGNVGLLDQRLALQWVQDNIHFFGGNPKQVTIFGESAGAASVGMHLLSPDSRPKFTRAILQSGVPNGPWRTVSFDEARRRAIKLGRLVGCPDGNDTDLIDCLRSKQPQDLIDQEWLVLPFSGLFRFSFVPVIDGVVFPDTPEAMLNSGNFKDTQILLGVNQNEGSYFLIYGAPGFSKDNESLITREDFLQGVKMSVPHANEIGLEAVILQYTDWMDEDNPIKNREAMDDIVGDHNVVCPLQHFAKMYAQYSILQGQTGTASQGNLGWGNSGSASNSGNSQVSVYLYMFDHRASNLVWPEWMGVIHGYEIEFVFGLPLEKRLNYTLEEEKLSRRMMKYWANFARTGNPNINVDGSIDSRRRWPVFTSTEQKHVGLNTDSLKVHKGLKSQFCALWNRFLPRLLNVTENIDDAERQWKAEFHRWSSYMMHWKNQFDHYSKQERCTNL
T1 sequence (Q9JI35 whole entry): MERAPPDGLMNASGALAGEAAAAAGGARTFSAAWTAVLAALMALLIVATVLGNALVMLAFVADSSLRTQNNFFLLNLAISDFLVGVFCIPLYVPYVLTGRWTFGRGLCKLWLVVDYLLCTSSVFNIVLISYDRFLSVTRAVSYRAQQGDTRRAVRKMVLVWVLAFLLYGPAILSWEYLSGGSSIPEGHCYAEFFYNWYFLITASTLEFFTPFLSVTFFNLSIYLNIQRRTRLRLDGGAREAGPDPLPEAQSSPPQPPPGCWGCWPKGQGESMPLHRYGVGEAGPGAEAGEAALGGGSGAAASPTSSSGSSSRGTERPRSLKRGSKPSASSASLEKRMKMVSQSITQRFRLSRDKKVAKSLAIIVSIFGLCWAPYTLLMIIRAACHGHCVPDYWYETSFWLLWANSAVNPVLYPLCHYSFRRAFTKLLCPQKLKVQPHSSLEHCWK

In general, IC50 refers to the concentration that inhibits the measured activity by half. Read a high IC50 as weaker potency in that assay. In the case of `N=C(N)N(CCCCN1CCN(CCCCCCCOc2ccccc2)CC1)Cc1ccccc1` [ADS1017], the “gpH3R pA2 ± sem” value on gpH3R (isolated guinea pig ileum, vs RAMH, 20 min) worked out at 8.21 ± 0.15. Also, in data set [1], the midpoint of inhibition, the IC50, lay at 39 µM. In addition, on eeAChE, the inhibition at 10 µM was 49.7 ± 0.7%.

Usually Kb stands for the equilibrium dissociation constant of an antagonist, usually derived from a functional assay. High values mean a less potent antagonist, low ones a more potent antagonist. As for `Cl.Cl.N=C(NCCCCc1ccc(Cl)cc1)NCCCCN1CCCCC1` [ADS10310], the antagonist dissociation constant (Kb) on gpH3R is 0.0191 µM. In addition, half-maximal inhibition in data set [1] (IC50) required 231 µM. Further, the “Substrate Remaining” value in data set [2] (120 min incubation with HLMs, Tris buffer pH 7.4, 37 °C) is 73.6%. In addition, in data set [2] (HLMs, metabolites M1-M3 by LC/MS), the “Metabolic Pathway” value was “decomposition and triple hydroxylation”. On eeAChE, the inhibition at 10 µM was found to be 7.3 ± 0.9%.
